Results from PubChem BioAssay (NCI).
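Results reflect a 48-hour exposure of cells in 96-well plates to compound at five concentrations. TGI: total growth inhibition.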

Experiments:
Experiment in all cases: DTP human tumour cell line panel, 48 h
OVCAR-4 ovarian = tested on: OVCAR-4 ovarian
K-562 leukemia = tested on: K-562 leukemia
HT29 colon = tested on: HT29 colon
MDA-MB-231 breast = tested on: MDA-MB-231 breast
SN12C renal = tested on: SN12C renal
RXF 393 renal = tested on: RXF 393 renal
T-47D breast = tested on: T-47D breast
ACHN renal = tested on: ACHN renal
SW-620 colon = tested on: SW-620 colon
MALME-3M melanoma = tested on: MALME-3M melanoma

Measured: TGI

CC[P+]1(c2ccccc2)[C@@H](C)CC[C@@H]1C
> 100 µM: OVCAR-4 ovarian | K-562 leukemia | HT29 colon | MDA-MB-231 breast | SN12C renal | RXF 393 renal | T-47D breast | ACHN renal | SW-620 colon | MALME-3M melanoma

CCOC(=O)c1c(N2CCCC2)ncn(C)c1=S
> 100 µM: OVCAR-4 ovarian | K-562 leukemia | HT29 colon | MDA-MB-231 breast | SN12C renal | RXF 393 renal | T-47D breast | ACHN renal | SW-620 colon | MALME-3M melanoma

COc1cccc2cc(C(C)=O)c(=O)oc12
> 100 µM: OVCAR-4 ovarian | K-562 leukemia | HT29 colon | MDA-MB-231 breast | SN12C renal | RXF 393 renal | T-47D breast | ACHN renal | SW-620 colon | MALME-3M melanoma
